In patent publication US20230079045A1 (priority 2019, published 2023):
Where two headings read alike, the source gives them in different places.

Columns and labels:
IFVA/Weiss/43 = experiment: cytopathic effect (CPE) antiviral test in MDCK cells, IFVA/Weiss/43; type: cell-based, influenza virus
IFVA/Mal/302/54 = experiment: cytopathic effect (CPE) antiviral test in MDCK cells, IFVA/Mal/302/54; type: cell-based, influenza virus; settings: unidentified influenza virus, MDCK, 120 h, read-out: EC50(IFVA/Mal/302/54), MDCK cells, CPE method, CCK-8 cell viability, 5 days
[1] = unidentified influenza virus, MDCK, 120 h, read-out: EC50(IFVA/Weiss/43), MDCK cells, CPE method, CCK-8 cell viability, 5 days

Q: For `CC(=O)Nc1ccc2oc(-c3ccnc(C(=O)N4CCC5(CC4)CN(C(c4ccccc4)c4nnn(C)n4)C5)c3)nc2c1` (stereo not drawn) [Compound 13, N-(2-(2-(2-((2-methyl-2H-tetrazol-5-yl)(phenyl)methyl)-2,7-diazaspiro[3.5]nonane-7-carbonyl)pyridin-4-yl)benzo[d]oxazol-5-yl)acetamide], which EC50 (IFVA/Weiss/43; [1]) is on record?
A: The EC50 was greater than 10000 nM.

Q: What about the EC50 (IFVA/Mal/302/54) of the same compound?
A: Its EC50 is 7830 nM.

Q: Which results are given for `CC(=O)Nc1ccc2oc(-c3ccnc(C(=O)N4C[C@@H]5C[C@H]4CN5C(c4ccccc4)c4nnn(C)n4)c3)nc2c1` (stereo partly drawn) [Compound 14, N-(2-(2-((1S,4S)-5-((2-methyl-2H-tetrazol-5-yl)(phenyl)methyl)-2,5-diazabicyclo[2.2.1]heptane-2-carbonyl)pyridin-4-yl)benzo[d]oxazol-5-yl)acetamide]?
A: EC50 (IFVA/Weiss/43; [1]): 383 nM; EC50 (IFVA/Mal/302/54): 1100 nM

Q: With `CC(=O)Nc1ccc2oc(-c3ccc(C#N)c(C(=O)N4CCN(C(c5ccccc5)c5nnn(C)n5)CC4)c3)nc2c1` (stereo not drawn) [Compound 15, N-(2-(4-cyano-3-(4-((2-methyl-2H-tetrazol-5-yl)(phenyl)methyl)piperazine-1-carbonyl)phenyl)benzo[d]oxazol-5-yl)acetamide] as the compound, how does the EC50 (IFVA/Weiss/43; [1]) read?
A: Its EC50 is greater than 10000 nM.

Q: What about the EC50 (IFVA/Mal/302/54) of the same compound?
A: Its EC50 is greater than 10000 nM.

Q: Which results are given for `CC(=O)Nc1ccc2oc(-c3ccnc(C(=O)N4C5CCC4CN(C(c4ccccc4)c4nnn(C(F)F)n4)C5)c3)nc2c1` (stereo not drawn) [Compound 17, N-(2-(2-(3-((2-(difluoromethyl)-2H-tetrazol-5-yl)(phenyl)methyl)-3,8-diazabicyclo[3.2.1]octane-8-carbonyl)pyridin-4-yl)benzo[d]oxazol-5-yl)acetamide]?
A: EC50 (IFVA/Weiss/43; [1]): 9 nM; EC50 (IFVA/Mal/302/54): 22 nM

Q: What does the source list for `CC(=O)Nc1ccc2oc(-c3ccnc(C(=O)N4C5CCC4CN(C(c4ccccc4)c4nnnn4C(F)F)C5)c3)nc2c1` (stereo not drawn) [Compound 18, N-(2-(2-(3-((1-(difluoromethyl)-1H-tetrazol-5-yl)(phenyl)methyl)-3,8-diazabicyclo[3.2.1]octane-8-carbonyl)pyridin-4-yl)benzo[d]oxazol-5-yl)acetamide]?
A: EC50 (IFVA/Weiss/43; [1]): 422 nM; EC50 (IFVA/Mal/302/54): 177 nM

Q: With `Cn1nnc(C(c2ccccc2)N2C[C@H]3CC[C@@H](C2)N3C(=O)c2cc(-c3nc4cc(N5CCCC5=O)ccc4o3)ccn2)n1` (stereo partly drawn) [Compound 19, 1-(2-(2-((1R,5S)-3-((2-methyl-2H-tetrazol-5-yl)(phenyl)methyl)-3,8-diazabicyclo[3.2.1]octane-8-carbonyl)pyridin-4-yl)benzo[d]oxazol-5-yl)pyrrolidin-2-one] as the compound, how does the EC50 (IFVA/Weiss/43; [1]) read?
A: Its EC50 is 23 nM.

Q: What about the EC50 (IFVA/Mal/302/54) of the same compound?
A: The EC50 was 19 nM.

Q: `CC(=O)Nc1ccc2oc(-c3ccnc(C(=O)N4C5CC4CN(C(c4ccccc4)c4nnn(C)n4)C5)c3)nc2c1` (stereo not drawn) [Compound 20, N-(2-(2-(3-((2-methyl-2H-tetrazol-5-yl)(phenyl)methyl)-3,6-diazabicyclo[3.1.1]heptane-6-carbonyl)pyridin-4-yl)benzo[d]oxazol-5-yl)acetamide] was tested. Which EC50 (IFVA/Weiss/43; [1]) did it give?
A: The EC50 was 545 nM.

Q: And the EC50 (IFVA/Mal/302/54)?
A: The EC50 was 919 nM.

Q: `Cn1nnc(C(c2ccccc2)N2CC3CC(C2)N3C(=O)c2cc(-c3nc4cc(NC(=O)C5CC5)ccc4o3)ccn2)n1` (stereo not drawn) [Compound 21, N-(2-(2-(3-((2-methyl-2H-tetrazol-5-yl)(phenyl)methyl)-3,6-diazabicyclo[3.1.1]heptane-6-carbonyl)pyridin-4-yl)benzo[d]oxazol-5-yl)cyclopropanecarboxamide] was tested. Which EC50 (IFVA/Weiss/43; [1]) did it give?
A: Its EC50 is 163 nM.

Q: And the EC50 (IFVA/Mal/302/54)?
A: The EC50 was 436 nM.

Q: With `CC(=O)Nc1ccc2oc(-c3ccnc(C(=O)N4C5CCC4CN(C(c4ccccc4)c4nnn(CCF)n4)C5)c3)nc2c1` (stereo not drawn) [Compound 22, N-(2-(2-(3-((2-(2-fluoroethyl)-2H-tetrazol-5-yl)(phenyl)methyl)-3,8-diazabicyclo[3.2.1]octane-8-carbonyl)pyridin-4-yl)benzo[d]oxazol-5-yl)acetamide] as the compound, how does the EC50 (IFVA/Weiss/43; [1]) read?
A: Its EC50 is 25 nM.

Q: And the EC50 (IFVA/Mal/302/54)?
A: Its EC50 is 33 nM.

Q: `CC(=O)Nc1ccc2oc(-c3ccnc(C(=O)N4CC5CC(C4)N5C(c4ccccc4)c4nnn(C)n4)c3)nc2c1` (stereo not drawn) [Compound 23, N-(2-(2-(6-((2-methyl-2H-tetrazol-5-yl)(phenyl)methyl)-3,6-diazabicyclo[3.1.1]heptane-3-carbonyl)pyridin-4-yl)benzo[d]oxazol-5-yl)acetamide] was tested. Which EC50 (IFVA/Weiss/43; [1]) did it give?
A: Its EC50 is greater than 10000 nM.

Q: What about the EC50 (IFVA/Mal/302/54) of the same compound?
A: Its EC50 is greater than 10000 nM.

Q: Which results are given for `Cn1nnc(C(c2ccccc2)N2CCN(C(=O)c3cc(-c4nc5cc(NC(=O)[C@@H]6CC6(F)F)ccc5o4)ccn3)CC2)n1` (stereo partly drawn) [Compound 24, (1S)-2,2-difluoro-N-(2-(2-(4-((2-methyl-2H-tetrazol-5-yl)(phenyl)methyl)piperazine-1-carbonyl)pyridin-4-yl)benzo[d]oxazol-5-yl)cyclopropane-1-carboxamide]?
A: EC50 (IFVA/Weiss/43; [1]): 12 nM; EC50 (IFVA/Mal/302/54): 32 nM

Q: With `Cn1nnc(C(c2ccccc2)N2CCN(C(=O)c3cc(-c4nc5cc(NC(=O)[C@@H]6C[C@H]6F)ccc5o4)ccn3)CC2)n1` (stereo partly drawn) [Compound 25, (1S,2R)-2-fluoro-N-(2-(2-(4-((2-methyl-2H-tetrazol-5-yl)(phenyl)methyl)piperazine-1-carbonyl)pyridin-4-yl)benzo[d]oxazol-5-yl)cyclopropane-1-carboxamide] as the compound, how does the EC50 (IFVA/Weiss/43; [1]) read?
A: Its EC50 is 60 nM.

Q: And the EC50 (IFVA/Mal/302/54)?
A: The EC50 was 68 nM.

Q: What does the source list for `Cn1nnc(C(c2ccccc2)N2CCN(C(=O)c3cc(-c4nc5cc(NC(=O)[C@@H]6C[C@@H]6F)ccc5o4)ccn3)CC2)n1` (stereo partly drawn) [Compound 26, (1S,2S)-2-fluoro-N-(2-(2-(4-((2-methyl-2H-tetrazol-5-yl)(phenyl)methyl)piperazine-1-carbonyl)pyridin-4-yl)benzo[d]oxazol-5-yl)cyclopropane-1-carboxamide]?
A: EC50 (IFVA/Weiss/43; [1]): 3 nM; EC50 (IFVA/Mal/302/54): 20 nM

Q: `Cn1nnc(C(c2ccccc2)N2CCN(C(=O)c3cc(-c4nc5cc(NC(=O)[C@H]6C[C@@H]6F)ccc5o4)ccn3)CC2)n1` (stereo partly drawn) [Compound 27, (1R,2S)-2-fluoro-N-(2-(2-(4-((2-methyl-2H-tetrazol-5-yl)(phenyl)methyl)piperazine-1-carbonyl)pyridin-4-yl)benzo[d]oxazol-5-yl)cyclopropane-1-carboxamide] was tested. Which EC50 (IFVA/Weiss/43; [1]) did it give?
A: The EC50 was 33 nM.

Q: What about the EC50 (IFVA/Mal/302/54) of the same compound?
A: The EC50 was 127 nM.

Q: How did the EC50 (IFVA/Weiss/43; [1]) turn out when `Cn1nnc(C(c2ccccc2)N2CCN(C(=O)c3cc(-c4nc5cc(NC(=O)[C@H]6C[C@H]6F)ccc5o4)ccn3)CC2)n1` (stereo partly drawn) [Compound 28, (1R,2R)-2-fluoro-N-(2-(2-(4-((2-methyl-2H-tetrazol-5-yl)(phenyl)methyl)piperazine-1-carbonyl)pyridin-4-yl)benzo[d]oxazol-5-yl)cyclopropane-1-carboxamide] was run?
A: Its EC50 is 17 nM.

Q: What about the EC50 (IFVA/Mal/302/54) of the same compound?
A: The EC50 was 27 nM.

Q: Which EC50 (IFVA/Weiss/43; [1]) does the source give for `O=C(Nc1ccc2oc(-c3ccnc(C(=O)N4CCN(C(c5ccccc5)c5nnn(C(F)F)n5)CC4)c3)nc2c1)[C@@H]1C[C@H]1F` (stereo partly drawn) [Compound 30, (1S,2R)-2-fluoro-N-(2-(2-(4-((2-difluoromethyl-2H-tetrazol-5-yl)(phenyl)methyl)piperazine-1-carbonyl)pyridin-4-yl)benzo[d]oxazol-5-yl)cyclopropane-1-carboxamide] here?
A: The EC50 was 12 nM.

Q: What about the EC50 (IFVA/Mal/302/54) of the same compound?
A: The EC50 was 27 nM.

Q: How did the EC50 (IFVA/Weiss/43; [1]) turn out when `O=C(Nc1ccc2oc(-c3ccnc(C(=O)N4CCN(C(c5ccccc5)c5nnn(C(F)F)n5)CC4)c3)nc2c1)[C@H]1C[C@@H]1F` (stereo partly drawn) [Compound 32, (1R,2S)-2-fluoro-N-(2-(2-(4-((2-difluoromethyl-2H-tetrazol-5-yl)(phenyl)methyl)piperazine-1-carbonyl)pyridin-4-yl)benzo[d]oxazol-5-yl)cyclopropane-1-carboxamide] was run?
A: Its EC50 is 26 nM.

Q: And the EC50 (IFVA/Mal/302/54)?
A: The EC50 was 3 nM.

Q: With `O=C(Nc1ccc2oc(-c3ccnc(C(=O)N4CCN(C(c5ccccc5)c5nnn(C(F)F)n5)CC4)c3)nc2c1)[C@H]1C[C@H]1F` (stereo partly drawn) [Compound 33, (1R,2R)-2-fluoro-N-(2-(2-(4-((2-difluoromethyl-2H-tetrazol-5-yl)(phenyl)methyl)piperazine-1-carbonyl)pyridin-4-yl)benzo[d]oxazol-5-yl)cyclopropane-1-carboxamide] as the compound, how does the EC50 (IFVA/Weiss/43; [1]) read?
A: Its EC50 is 16 nM.

Q: And the EC50 (IFVA/Mal/302/54)?
A: The EC50 was 31 nM.

Q: Which EC50 (IFVA/Weiss/43; [1]) does the source give for `CS(=O)(=O)Nc1ccc2oc(-c3ccnc(C(=O)N4CCN(C(c5ccccc5)c5nnn(C(F)F)n5)CC4)c3)nc2c1` (stereo not drawn) [Compound 34] here?
A: Its EC50 is greater than 10000 nM.

Q: What about the EC50 (IFVA/Mal/302/54) of the same compound?
A: Its EC50 is greater than 10000 nM.

Q: Which results are given for `Cn1nnc(C(c2ccccc2)N2CCN(C(=O)c3cc(-c4nc5cc(NC(=O)C6CC6)ccc5o4)ccn3)CC2)n1` (stereo not drawn) [Compound 35, N-(2-(2-(4-((2-methyl-2H-tetrazol-5-yl)(phenyl)methyl)piperazine-1-carbonyl)pyridin-4-yl)benzo[d]oxazol-5-yl)cyclopropanecarboxamide]?
A: EC50 (IFVA/Weiss/43; [1]): 12 nM; EC50 (IFVA/Mal/302/54): 19 nM

Q: Which EC50 (IFVA/Weiss/43; [1]) does the source give for `O=C(c1cc(-c2nc3cc(N4CCCC4=O)ccc3o2)ccn1)N1CCN(C(c2ccccc2)c2nnn(C(F)F)n2)CC1` (stereo not drawn) [Compound 37, 1-(2-(2-(4-((2-(difluoromethyl)-2H-tetrazol-5-yl)(phenyl)methyl)piperazine-1-carbonyl)pyridin-4-yl)benzo[d]oxazol-5-yl)pyrrolidin-2-one] here?
A: The EC50 was 17 nM.

Q: What about the EC50 (IFVA/Mal/302/54) of the same compound?
A: Its EC50 is 22 nM.

Q: Which EC50 (IFVA/Weiss/43; read-out: EC50(IFVA/Weiss/43), MDCK cells, CPE method, CCK-8 cell viability, 5 days) does the source give for `Cn1nnc(C(c2ccccc2)N2CCN(C(=O)c3cc(-c4nc5cc(O[C@H]6CCOC6)ccc5o4)ccn3)CC2)n1` (stereo partly drawn) [Compound 38, (4-((2-methyl-2H-tetrazol-5-yl)(phenyl)methyl)piperazin-1-yl)(4-(5-(((S)-tetrahydrofuran-3-yl)oxy)benzo[d]oxazol-2-yl)pyridin-2-yl)methanone] here?
A: Its EC50 is 20 nM.

Q: And the EC50 (IFVA/Mal/302/54)?
A: Its EC50 is 18 nM.

Q: What does the source list for `O=C(c1cc(-c2nc3cc(O[C@H]4CCOC4)ccc3o2)ccn1)N1CCN(C(c2ccccc2)c2nnn(C(F)F)n2)CC1` (stereo partly drawn) [Compound 39, (4-((2-(difluoromethyl)-2H-tetrazol-5-yl)(phenyl)methyl)piperazin-1-yl)(4-(5-(((S)-tetrahydrofuran-3-yl)oxy)benzo[d]oxazol-2-yl)pyridin-2-yl)methanone]?
A: EC50 (IFVA/Weiss/43; [1]): 4 nM; EC50 (IFVA/Mal/302/54): 11 nM

Q: `CC(=O)Nc1ccc2oc(-c3ccnc(C(=O)N4CCN(C(c5ccccc5)c5nnn(C(F)F)n5)CC4)c3)nc2c1` (stereo not drawn) [Compound 40, N-(2-(2-(4-((2-(difluoromethyl)-2H-tetrazol-5-yl)(phenyl)methyl)piperazine-1-carbonyl)pyridin-4-yl)benzo[d]oxazol-5-yl)acetamide] was tested. Which EC50 (IFVA/Weiss/43; [1]) did it give?
A: The EC50 was 16 nM.

Q: And the EC50 (IFVA/Mal/302/54)?
A: Its EC50 is 24 nM.
